system: serine palmitoyltransferase (SPT) in SPTLC3 overexpressing HEK293 cells; assay: In vitro SPT activity with various acyl-CoA substrates (Example 1, FIG. 3); format: biochemical; details: acyl-CoA 50 μM; activity with palmitoyl-CoA defined as 100%
Experimental: FIG. 3 In vitro SPT activity with various acyl-CoA substrates (C12-CoA, C14-CoA, C16-CoA and C18:1-CoA) in control, SPTLC1, SPTLC2 and SPTLC3 overexpressing HEK293 cells. […] (For comparison the activity with palmitoyl-CoA is defined as 100%.)
All acyl-CoAs were used at the same concentration (50 μM).

Structure (SMILES)	SPT activity with the acyl-CoA substrate in SPTLC3 overexpressing cells compared with control, SPTLC1 and SPTLC2 cells
CCCCCCCCCCCC(=O)SCCNC(=O)CCNC(=O)[C@H](O)C(C)(C)COP(=O)(O)OP(=O)(O)OC[C@H]1O[C@@H](n2cnc3c(N)ncnc32)[C@H](O)[C@@H]1OP(=O)(O)O [lauryl-CoA]	significantly higher activity
CCCCCCCC/C=C\CCCCCCCC(=O)SCCNC(=O)CCNC(=O)[C@H](O)C(C)(C)COP(=O)(O)OP(=O)(O)OC[C@H]1O[C@@H](n2cnc3c(N)ncnc32)[C@H](O)[C@@H]1OP(=O)(O)O [oleoyl-CoA]	comparable for all cell lines
CCCCCCCCCCCCCCCCCC(=O)SCCNC(=O)CCNC(=O)[C@H](O)C(C)(C)COP(=O)(O)OP(=O)(O)OC[C@H]1O[C@@H](n2cnc3c(N)ncnc32)[C@H](O)[C@@H]1OP(=O)(O)O [stearoyl-CoA]	comparable for all cell lines
